This note sets out measurements from patent publication US20240199546A1, “INHIBITORS OF SOLUTE CARRIER FAMILY 6A MEMBER 19 (SLC6A19) AND METHODS OF USE THEREOF” (Maze Therapeutics, Inc., priority 2022, published 2024).

Molecules are shown by their SMILES.

The target of the test is T1, human SLC6A19 and TMEM27 (Homo sapiens, UniProt Q695T7).
T1 construct: expressed in transfected cells
T1 sequence (Q695T7 1-634): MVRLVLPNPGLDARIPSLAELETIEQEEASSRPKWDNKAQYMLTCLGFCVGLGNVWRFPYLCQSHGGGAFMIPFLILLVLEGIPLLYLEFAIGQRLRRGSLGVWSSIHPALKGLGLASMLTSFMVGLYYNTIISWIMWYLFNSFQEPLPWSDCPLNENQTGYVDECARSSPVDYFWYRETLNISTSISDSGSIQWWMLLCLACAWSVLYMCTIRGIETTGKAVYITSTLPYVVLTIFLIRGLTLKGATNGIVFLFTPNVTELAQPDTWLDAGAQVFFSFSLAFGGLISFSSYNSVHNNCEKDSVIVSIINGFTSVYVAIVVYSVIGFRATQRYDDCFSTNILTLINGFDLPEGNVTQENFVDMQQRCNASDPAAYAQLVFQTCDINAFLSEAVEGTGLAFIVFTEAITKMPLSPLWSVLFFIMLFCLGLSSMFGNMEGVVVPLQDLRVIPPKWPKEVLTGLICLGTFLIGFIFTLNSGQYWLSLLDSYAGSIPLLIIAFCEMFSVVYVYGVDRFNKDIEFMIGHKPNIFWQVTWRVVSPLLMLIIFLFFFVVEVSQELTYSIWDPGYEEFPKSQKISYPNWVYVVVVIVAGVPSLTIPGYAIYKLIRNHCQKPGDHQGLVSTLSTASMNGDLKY
T1 sequence (Q9HBJ8 15-222 partner): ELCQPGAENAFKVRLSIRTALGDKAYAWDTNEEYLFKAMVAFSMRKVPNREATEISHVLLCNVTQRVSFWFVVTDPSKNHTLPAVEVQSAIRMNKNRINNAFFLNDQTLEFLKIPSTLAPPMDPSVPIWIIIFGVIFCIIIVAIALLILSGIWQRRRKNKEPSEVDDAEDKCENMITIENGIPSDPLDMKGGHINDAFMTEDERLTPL
In words: Radiolabelled (3H) leucine uptake in CHO cells with doxycycline-inducible expression of human SLC6A19 and TMEM27 (Example B-1). Type of test: cell-based. To be noted: CHO cells with doxycycline-inducible expression of human SLC6A19 and TMEM27, read-out: SLC6A19_Radioligand Uptake Assay IC50. In outline:
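CHO cells were induced with doxycycline for 18 h at 37 °C, washed in HBSS, then exposed to compounds for 1 h: 8-point, 3-fold dilutions in duplicate, 0.5% DMSO final. Uptake measured by scintillation counting after 2 h shaking. Activity normalized with positive control as 0% and DMSO as 100%.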
By IC50 is commonly meant the concentration at which inhibition is half-maximal. In the case of `CC1(C(=O)NCc2cc3cc(Cl)c(OCc4cccc(C(F)(F)F)n4)cc3[nH]2)CC1` [Compound 101, N-((5-chloro-6-((6-(trifluoromethyl)pyridin-2-yl)methoxy)-1H-indol-2-yl)methyl)-1-methylcyclopropane-1-carboxamide], the IC50 stood at 4360 nM. To `COc1cc2cc(CNC(=O)C3(C)CC3)[nH]c2cc1CCn1nccn1` [Compound 591, N-((6-(2-(2H-1,2,3-triazol-2-yl)ethyl)-5-methoxy-1H-indol-2-yl)methyl)-1-methylcyclopropane-1-carboxamide] belongs 184 nM; to `CC1(C(=O)NCc2cc3cc(-c4cnco4)c(OCc4cscn4)cc3[nH]2)CC1` [Compound 661, 1-methyl-N-((5-(oxazol-5-yl)-6-(thiazol-4-ylmethoxy)-1H-indol-2-yl)methyl)cyclopropane-1-carboxamide], 1000 nM. Regarding `O=C(NCc1cc2cc(F)c(OCc3cscn3)cc2[nH]1)C1(CO)CC1` [Compound 255, N-((5-fluoro-6-(thiazol-4-ylmethoxy)-1H-indol-2-yl)methyl)-1-(hydroxymethyl)cyclopropane-1-carboxamide], the IC50 stood at 1360 nM. For `CC(C#N)C(=O)NCc1cc2cc(Cl)c(OCc3cscn3)cc2[nH]1` (racemic) [Compound 445, (S)-N-((5-chloro-6-(thiazol-4-ylmethoxy)-1H-indol-2-yl)methyl)-2-cyanopropanamide and (R)-N-((5-chloro-6-(thiazol-4-ylmethoxy)-1H-indol-2-yl)methyl)-2-cyanopropanamide], the half-maximal inhibitory concentration (IC50) is 444 nM. To `CC1(C(=O)NCc2cc3cc(Cl)c(OCCC4CCC4)cc3[nH]2)CC1` [Compound 394, N-((5-chloro-6-(2-cyclobutylethoxy)-1H-indol-2-yl)methyl)-1-methylcyclopropane-1-carboxamide] belongs 676 nM; to `O=C(NCc1cc2cc(F)c(OCc3cscn3)cc2[nH]1)C1(C(F)(F)F)CC1` [Compound 127, N-((5-fluoro-6-(thiazol-4-ylmethoxy)-1H-indol-2-yl)methyl)-1-(trifluoromethyl)cyclopropane-1-carboxamide], 98 nM. In the case of `Cc1cc(COc2cc3[nH]c(CNC(=O)[C@H]4CCCN4C)cc3cc2Cl)on1` [Compound 578, (R)-N-((5-chloro-6-((3-methylisoxazol-5-yl)methoxy)-1H-indol-2-yl)methyl)-1-methylpyrrolidine-2-carboxamide] it was > 5550 nM; in that of `Cc1cc(CCc2cc3[nH]c(CNC(=O)C4(C)CC4)cc3cc2F)no1` [Compound 593, N-((5-fluoro-6-(2-(5-methylisoxazol-3-yl)ethyl)-1H-indol-2-yl)methyl)-1-methylcyclopropane-1-carboxamide], 220 nM; in that of `Cc1cc(COc2cc3[nH]c(CNC(=O)C(C)(C)O)cc3cc2Cl)on1` [Compound 249, N-((5-chloro-6-((3-methylisoxazol-5-yl)methoxy)-1H-indol-2-yl)methyl)-2-hydroxy-2-methylpropanamide], 545 nM. With `O=C(CO)NCc1cc2cc(Cl)c(OCc3cscn3)cc2[nH]1` [Compound 244, N-((5-chloro-6-(thiazol-4-ylmethoxy)-1H-indol-2-yl)methyl)-2-hydroxyacetamide], the IC50 worked out at 391 nM. To `COC1CN(C(=O)NCc2cc3cc(Cl)c(OCc4cscn4)cc3[nH]2)C1` [Compound 364, N-((5-chloro-6-(thiazol-4-ylmethoxy)-1H-indol-2-yl)methyl)-3-methoxyazetidine-1-carboxamide] belongs 690 nM. Turning to `CC1(C(=O)NCc2cc3cc(OC(F)(F)F)c(OCc4ccon4)cc3[nH]2)CC1` [Compound 508, N-((6-(isoxazol-3-ylmethoxy)-5-(trifluoromethoxy)-1H-indol-2-yl)methyl)-1-methylcyclopropane-1-carboxamide], the IC50 turned out to be 293 nM.

`CC1(C(=O)NCc2cc3cc(C4CC4(F)F)c(OCc4cscn4)cc3[nH]2)CC1` (stereo not shown) [Compound 657, N-((5-(2,2-difluorocyclopropyl)-6-(thiazol-4-ylmethoxy)-1H-indol-2-yl)methyl)-1-methylcyclopropane-1-carboxamide]: the 50% inhibitory concentration (IC50) stood at 654 nM. In the case of `Cc1cc(CC(C)c2ccc3cc(CNC(=O)C4(C)CC4)[nH]c3c2)no1` (stereo not shown) [Compound 153, 1-methyl-N-((6-(1-(5-methylisoxazol-3-yl)propan-2-yl)-1H-indol-2-yl)methyl) cyclopropane-1-carboxamide] it was 1960 nM; in that of `Cc1cc(COc2cc3[nH]c(CNC(=O)[C@H]4COCCO4)cc3cc2Cl)on1` [Compound 304, (R)-N-((5-chloro-6-((3-methylisoxazol-5-yl)methoxy)-1H-indol-2-yl)methyl)-1,4-dioxane-2-carboxamide], 718 nM. In the case of `O=C(NCc1cc2cc(Cl)c(OCc3cscn3)cc2[nH]1)[C@H]1CCO1` [Compound 259, (R)-N-((5-chloro-6-(thiazol-4-ylmethoxy)-1H-indol-2-yl)methyl)oxetane-2-carboxamide] it was 121 nM; in that of `CC1(C(=O)NCc2cc3cc(F)c(COc4ccon4)cc3[nH]2)CC1` [Compound 612, N-((5-fluoro-6-((isoxazol-3-yloxy)methyl)-1H-indol-2-yl)methyl)-1-methylcyclopropane-1-carboxamide], 152 nM.

Regarding `Cc1cc(COc2cc3[nH]c(CNC(=O)C45COCC4C5)cc3cc2Cl)on1` (stereo not shown) [Compound 300, N-((5-chloro-6-((3-methylisoxazol-5-yl)methoxy)-1H-indol-2-yl)methyl)-3-oxabicyclo[3.1.0]hexane-1-carboxamide], the half-maximal inhibitory concentration (IC50) worked out at 321 nM. Turning to `C[C@H]1CCCN1C(=O)NCc1cc2cc(F)c(OCc3ccon3)cc2[nH]1` [Compound 384, (S)-N-((5-fluoro-6-(isoxazol-3-ylmethoxy)-1H-indol-2-yl)methyl)-2-methylpyrrolidine-1-carboxamide], the IC50 stood at 1570 nM.

On to `Cc1cc(COc2cc3[nH]c(CNC(=O)C4(C)CC4)cc3cc2Cl)ns1` [Compound 399, N-((5-chloro-6-((5-methylisothiazol-3-yl)methoxy)-1H-indol-2-yl)methyl)-1-methylcyclopropane-1-carboxamide], for which the IC50 is 429 nM.

On to `C[C@@H]1CCN(C(=O)NCc2cc3cc(F)c(OCc4ccon4)cc3[nH]2)C1` [Compound 381, (R)-N-((5-fluoro-6-(isoxazol-3-ylmethoxy)-1H-indol-2-yl)methyl)-3-methylpyrrolidine-1-carboxamide], for which the IC50 was 339 nM. In the case of `O=C(NCc1cc2c(F)cc(OCc3ccon3)cc2[nH]1)N1CCC1` [Compound 423, N-((4-fluoro-6-(isoxazol-3-ylmethoxy)-1H-indol-2-yl)methyl)azetidine-1-carboxamide], the IC50 was determined as 198 nM. As to `Cc1cc(COc2cc3[nH]c(CNC(=O)NC4CC4)cc3cc2Cl)on1` [Compound 636, 1-((5-chloro-6-((3-methylisoxazol-5-yl)methoxy)-1H-indol-2-yl)methyl)-3-cyclopropylurea], the IC50 was found to be 164 nM. As for `CC(=O)NCc1cc2cc(Cl)c(OCCOC3CCC3)cc2[nH]1` [Compound 456, N-((5-chloro-6-(2-cyclobutoxyethoxy)-1H-indol-2-yl)methyl)acetamide], the IC50 was determined as 4260 nM.
